Where “and” joins values, the source holds several entries; their conditions need not be identical. Equal values may be shown once.
System: Fasciola hepatica
Assay: Trial in sheep artificially infected with Fasciola hepatica (faecal egg counts and adult helminth counts at necropsy)
Type: in vivo, Schafe
Settings: for adulte Helminthen Mittelwert: group mean of 4 sheep; for EPG 12. Woche / EPG 13. Woche / adulte Helminthen Anzahl: sheep, individual animals; for EPG 12. Woche: 12th week after infection; for EPG 13. Woche: 13th week after infection; for adulte Helminthen Anzahl: at necropsy; for adulte Helminthen Reduktion in %: versus untreated control animals
Description: Versuch an mit Fasciola hepatica und Nematoden […] von Fasciola hepatica infiziert. Zu diesem Zweck […] in einer wässrigen 0,4%igen Suspension von Carboxymethylcellulose direkt in den Rumen […] oral mit je 10.000 bzw. 5.000 […] 3) von […] Trichostrongylus colubriformis und Haemonchus contortus infiziert. Für die Medikierung wurden die Versuchstiere in gleichgrossen Gruppen und in […], in denen der Anteil von Wirkstoff der Formel 1 2-5 mg/kg und der Anteil Wirkstoff der Formel II 3-7 mg/kg betrugen, an die […] in Gehegeboxen unter Normalbedingungen gehalten. Zur […] in bestimmten Zeitinvervallen nach Infizierung und Medikierung die mit dem Kot […] und die […]. Die erhaltenen Resultate […] und der Kontrollgruppen wurden für die Auswertung verglichen. Indikation: Fasciola hepatica […]): 19

Row | SMILES | adulte Helminthen Mittelwert (I 2,5 mg/kg) | EPG 12. Woche (I 2,5 mg/kg) | EPG 13. Woche (I 2,5 mg/kg) | adulte Helminthen Anzahl (I 2,5 mg/kg) | adulte Helminthen Reduktion in % (I 2,5 mg/kg) | adulte Helminthen Mittelwert (II 6,75 mg/kg) | EPG 12. Woche (II 6,75 mg/kg) | EPG 13. Woche (II 6,75 mg/kg) | adulte Helminthen Anzahl (II 6,75 mg/kg) | adulte Helminthen Reduktion in % (II 6,75 mg/kg)
1 | CSc1nc2cc(Cl)c(Oc3cccc(Cl)c3Cl)cc2[nH]1 [Substanz I, 5-Chlor-6-(2',3'-dichlorphenoxy)-2-methylthiobenzimidazol] | 48,5 | 210 Eier pro gr Faeces and 160 Eier pro gr Faeces and 120 Eier pro gr Faeces and 20 Eier pro gr Faeces | 130 Eier pro gr Faeces and 160 Eier pro gr Faeces and 180 Eier pro gr Faeces and 15 Eier pro gr Faeces | 58 and 65 and 51 and 20 | 52,7% | – | – | – | – | –
2 | c1ccc([C@H]2CN3CCSC3=N2)cc1 [Substanz II, L-(-)-2,3,5,6-Tetrahydro-6-phenylimidazo[2,1-b]-thiazol] | – | – | – | – | – | 92,8 | 225 Eier pro gr Faeces and 990 Eier pro gr Faeces and 160 Eier pro gr Faeces and 226 Eier pro gr Faeces | 810 Eier pro gr Faeces and 1140 Eier pro gr Faeces and 250 Eier pro gr Faeces (2×) | 103 and 108 and 71 and 89 | 9,6%

Reference: patent publication EP0101412A2, “Anthelmintics” (CIBA-GEIGY AG, priority 1982, dated 1984)
